For data set [1] the following is noted: plates in 2000 ml water, 0.4% medetomidine in wet paint. As for the experimental part:
Four different 30 g paint samples were prepared. Two of the samples were based on biocide-free and water-based standard white exterior wall paint, while the two other samples were based on biocide-free and organic solvent-based standard white exterior wall paint. Medetomidine was added to each sample, either in free form or the form of microspheres. ^14C-labelled material was 2.3% of all medetomidine. Wet paint contained in total 0.4% medetomidine. Stirring the paint with an electrical mixer assured homogeneous dispersion of the added substance. For the release studies, approximately 1 g (dry state) of the paint systems was applied on poly(propylene) plates using a paint applicator. After drying and weighing, each plate was vertically positioned in a closed container containing 2000 ml water that covered the plate. The containers were placed on a mechanical shaker. At various times 1000 μl water was pipetted out from each system and transferred to 20 ml tubes.

The test system of data set [2] is barnacles and other fouling organisms. To be noted: 0.1% by weight medetomidine or equivalent in marine paint; six and ten months of submersion in the sea, Swedish west coast.
Experimental: PMMA test panels 1 dm^2 was painted by brush with three different biocide free commercially available marine paints. 3 ml of paint were used for each layer and there were two layers applied on each panel. These panels were used as references. To the same paints in different cans were added 0.1% by weight of medetomidine or an equivalent amount of medetomidine encapsulated in microspheres. The paint mixtures were applied to the same kind of test panels as the reference paints. All panels were made in triplicates and mounted randomly on a frame for submersion into the sea on the Swedish west coast (Tjärnö Marine Biological Laboratory). After six months and ten months (June 2009 to December 2009 and in April 2010) of submersion they were inspected.
Data set [3] in a line: IPBC release from painted surfaces immersed in water (14C, liquid scintillation). The class given is physicochemical. Conditions: water-based paint; 0.1% IPBC in wet paint; microspheres with 10% and 25% loading; plates in 250 ml water. As for the experimental part:
Three different 10 g paint samples were prepared. […] A specific fraction of the IPBC was ^14C-labelled material. Wet paint contained in total 0.1% IPBC. Stirring the paint assured homogeneous dispersion of the added substance. […] The containers were placed on a mechanical shaker. […] The release of free IPBC is about three times faster than that from microspheres.

Molecules are shown by their SMILES. Like-named read-outs stand apart in the source and are kept apart here.

Regarding `Cc1cccc(C(C)c2cnc[nH]2)c1C` (stereo not shown) [medetomidine, 4-[1-(2,3-dimethylphenyl)ethyl]-3H-imidazole], the “release of free medetomidine compared with that from microspheres” value in data set [1] (solvent-based paint) is “ten”; in data set [1] (water-based paint) it was “about two”. For the same compound, the “barnacle / tubeworm attachment on painted panels” value in data set [2] is “no barnacles or tubeworms attached”.
For the compound `CCCCNC(=O)OCC#CI` [free IPBC, 3-iodo-2-propynyl butylcarbamate], the “release of free IPBC compared with that from microspheres” value in data set [3] is “about three”.

(Values after patent US20110274763A1, “Slow releasing microcapsules and microspheres containing an active substance” (priority 2009, published 2011).)
